The values below are quoted from earlier work in patent publication US11224572B1, “Stable oral liquid composition of terazosin” (Novitium Pharma LLC, priority 2020, dated 2022).

Counter-ions that a name gives are not always drawn.

For data set [1], the system named is alpha-1 adrenoceptor.
The conditions of data set [2]: patients treated with terazosin.
Data set [3] deals with alpha-1 adrenoceptor. To be noted: in animals.

For the compound `COc1cc2nc(N3CCN(C(=O)C4CCCO4)CC3)nc(N)c2cc1OC` (racemic) [terazosin, (RS)-Piperazine, 1-(4-amino-6,7-dimethoxy-2-quinazolinyl)-4-[(tetrahydro-2-furanyl)carbonyl]-, monohydrochloride], in data set [1], the “time within which blood pressure decreases following oral administration” value is at most 15 min. In data set [2], the “patients experiencing an increase in urinary flow and improvement in symptoms of BPH” value is reported as “approximately 70%”. Further, in data set [3], the “effect on blood pressure” value is listed as “causes a decrease in blood pressure by decreasing total peripheral vascular resistance”.
